Reference: patent US8741926B2, “Macrocyclic inhibitors of hepatitis C virus” (Tibotec Pharmaceuticals Ltd., priority 2005, dated 2014)

How the values were obtained:
[1] = tested on: HCV type 1b replicon in Huh-7 luc/neo (Huh-Luc) cells; assay: Replicon assay: inhibition of HCV RNA replication in Huh-Luc cells (luciferase); format: cell-based; settings: Hepatitis C virus, Huh-7, 72 h, luciferase activity, incubation of three days
Procedure: The in vitro antiviral activity against HCV of the compounds of formula (I) was tested in a cellular HCV replicon system based on Lohmann et al. (1999) Science 285:110-113, with the further modifications described by Krieger et al. (2001) Journal of Virology 75: 4614-4624, which is further exemplified in the examples section. This model, while not a complete infection model for HCV, is widely accepted as the most robust and efficient model of autonomous HCV RNA replication currently available. […] It will be appreciated that it is important to distinguish between compounds that specifically interfere with HCV functions from those that exert cytotoxic or cytostatic effects in the HCV replicon model, and as a consequence cause a decrease in HCV RNA or linked reporter enzyme concentration. Assays are known in the field for the evaluation of cellular cytotoxicity based for example on the activity of mitochondrial enzymes using fluorogenic redox dyes such as resazurin. Furthermore, cellular counter screens exist for the evaluation of non-selective inhibition of linked reporter gene activity, such as firefly luciferase. Appropriate cell types can be equipped by stable transfection with a luciferase reporter gene whose expression is dependent on a constitutively active gene promoter, and such cells can be used as a counter-screen to eliminate non-selective inhibitors.
The compounds of formula (I) were examined for activity in the inhibition of HCV RNA replication in a cellular assay. […] The cellular assay was based on a bicistronic expression construct, as described by Lohmann et al. (1999) Science vol. 285 pp. 110-113 with modifications described by Krieger et al. (2001) Journal of Virology 75: 4614-4624, in a multi-target screening strategy. In essence, the method was as follows.
The assay utilized the stably transfected cell line Huh-7 luc/neo (hereafter referred to as Huh-Luc). This cell line harbors an RNA encoding a bicistronic expression construct comprising the wild type NS3-NS5B regions of HCV type 1b translated from an Internal Ribosome Entry Site (IRES) from encephalomyocarditis virus (EMCV), preceded by a reporter portion (FfL-luciferase), and a selectable marker portion (neo^R, neomycine phosphotransferase). The construct is bordered by 5′ and 3′ NTRs (non-translated regions) from HCV type 1b. Continued culture of the replicon cells in the presence of G418 (neo^R) is dependent on the replication of the HCV RNA. The stably transfected replicon cells that express HCV RNA, which replicates autonomously and to high levels, encoding inter alia luciferase, are used for screening the antiviral compounds.
The replicon cells were plated in 384 well plates in the presence of the test and control compounds which were added in various concentrations. Following an incubation of three days, HCV replication was measured by assaying luciferase activity (using standard luciferase assay substrates and reagents and a Perkin Elmer ViewLux™ ultraHTS microplate imager). Replicon cells in the control cultures have high luciferase expression in the absence of any inhibitor. The inhibitory activity of the compound on luciferase activity was monitored on the Huh-Luc cells, enabling a dose-response curve for each test compound.

[2] = target: HCV NS3/4A protease (Hepatitis C virus genotype 1a (isolate H77) (HCV), UniProt P27958); assay: Inhibition assay (enzymatic assay) of full-length NS3 protease with NS4A cofactor; format: biochemical
Chain of HCV NS3/4A protease (P27958 1027-1657): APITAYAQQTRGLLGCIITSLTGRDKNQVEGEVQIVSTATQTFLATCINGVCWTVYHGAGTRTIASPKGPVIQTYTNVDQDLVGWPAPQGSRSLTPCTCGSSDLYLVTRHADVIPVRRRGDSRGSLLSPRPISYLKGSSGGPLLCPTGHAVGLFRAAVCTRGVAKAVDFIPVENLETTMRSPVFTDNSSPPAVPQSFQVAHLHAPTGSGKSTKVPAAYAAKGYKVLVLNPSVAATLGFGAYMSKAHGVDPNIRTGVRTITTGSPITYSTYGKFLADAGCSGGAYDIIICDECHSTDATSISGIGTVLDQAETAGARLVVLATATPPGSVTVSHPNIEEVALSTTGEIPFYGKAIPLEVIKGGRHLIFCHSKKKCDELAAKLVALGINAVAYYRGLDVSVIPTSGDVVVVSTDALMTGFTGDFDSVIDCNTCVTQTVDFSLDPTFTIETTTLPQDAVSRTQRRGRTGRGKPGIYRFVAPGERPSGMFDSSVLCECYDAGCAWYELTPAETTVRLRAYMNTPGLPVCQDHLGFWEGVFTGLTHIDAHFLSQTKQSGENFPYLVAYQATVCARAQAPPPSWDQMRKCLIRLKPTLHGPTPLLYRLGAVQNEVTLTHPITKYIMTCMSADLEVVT
Procedure: [Landro, 1997 #Biochem 36 9340-9348]. […] The solutions were stored at −20° C. between measurements.
[Liu, 1999 Analytical Biochemistry 267 331-335].

[3] = In vivo effects of ritonavir on the oral pharmacokinetics of Compound nr. 47 in rat; settings: male and female Sprague-Dawley rats, single oral 10 mg/kg Compound nr. 47, boosting with 10 mg/kg ritonavir about 30 minutes before, plasma
Procedure: Oral pharmacokinetics of Compound nr. 47 in male and female Sprague-Dawley rats after a single dose at 10 mg/kg, using a formulation in 50% PEG400/water and the influence of “boosting” with 10 mg/kg ritonavir were investigated.
Four male and four female Sprague-Dawley (SD)-rats (approx. body weight 200-250 g) were randomly divided into 2 groups of 2 males and females each (boosted and non-boosted) based on body weight. […] The animals were fasted shortly before the trial. Drinking water remained available ad libitum.
Rats from the non-boosted group received a single oral 10 mg/kg dose of Compound nr. 47, formulated as a 3 mg/ml 50% PEG400/water at pH 8. Rats from the boosted group received a single oral dose of ritonavir, about 30 minutes before single oral dosing with 10 mg/kg of Compound nr. 47. The drug formulations were administered by oral gavage.
From each rat, a 0.5 ml blood sample was collected at 0.5 h, 1 h, 2 h, 4 h and 8 h after dosing. Plasma concentrations were determined using HPLC-MS. Results are shown in the table 2 below, expressed as fold change in pharmacokinetic parameter of the boosted group as compared to the non-boosted group.

SMILES: COc1ccc2c(O[C@@H]3C[C@H]4C(=O)N[C@]5(C(=O)NS(=O)(=O)C6CC6)C[C@H]5/C=C\CCCCN(C)C(=O)[C@@H]4C3)cc(-c3nc(C(C)C)cs3)nc2c1C [Compound 47, N-[17-[2-(4-isopropylthiazole-2-yl)-7-methoxy-8-methylquinolin-4-yloxy]-13-methyl-2,14-dioxo-3,13-diazatricyclo[13.3.0.0^4,6]octadec-7-ene-4-carbonyl](cyclopropyl)sulfonamide]
- EC50 [1]: 0.00618 µM
- Ki [2]: 0.5 nM
- Cmax, fold change of the boosted group as compared to the non-boosted group [3]: 2.2 fold change
